Data reported in patent publication US7713966B2, “Heterobicyclic metalloprotease inhibitors” (Alantos Pharmaceuticals Holding, Inc., priority 2006, dated 2010).

How the values were obtained:
Type in all cases: biochemical
[1] = target: T1, catalytic domain of MMP-13 enzyme (Homo sapiens, UniProt P45452); test: Assay for determining MMP-13 inhibition (fluorescent substrate); settings: read-out: MMP-13 Activity (IC50 MMP-13), Group
T1 construct: catalytic domain of MMP-13 enzyme (produced by Alantos or commercially available from Invitek (Berlin), Cat. # 30100812); purchased Invitek (Berlin) 30100812
Description: The typical assay for MMP-13 activity is carried out in assay buffer comprised of 50 mM Tris, pH 7.5, 150 mM NaCl, 5 mM CaCl2 and 0.05% Brij-35. Different concentrations of tested compounds are prepared in assay buffer in 50 μL aliquots. 10 μL of a 50 nM stock solution of catalytic domain of MMP-13 enzyme (produced by Alantos or commercially available from Invitek (Berlin), Cat. # 30100812) is added to the compound solution. The mixture of enzyme and compound in assay buffer is thoroughly mixed and incubated for 10 min at room temperature. Upon the completion of incubation, the assay is started by addition of 40 μl of a 12.5 μM stock solution of MMP-13 fluorescent substrate (Calbiochem, Cat. No. 444235). The time-dependent increase in fluorescence is measured at the 320 nm excitation and 390 nm emission by automatic plate multireader. The IC50 values are calculated from the initial reaction rates.

[2] = target: T2, catalytic domain of MMP-3 enzyme (Homo sapiens, UniProt P08254); test: Assay for determining MMP-3 inhibition (NFF-3 fluorescent substrate); settings: read-out: MMP-3 Activity (IC50 MMP-3), Group
T2 construct: catalytic domain of MMP-3 enzyme (Biomol, Cat. No. SE-109); purchased Biomol SE-109
Description: The typical assay for MMP-3 activity is carried out in assay buffer comprised of 50 mM MES, pH 6.0, 10 mM CaCl2 and 0.05% Brij-35. Different concentrations of tested compounds are prepared in assay buffer in 50 μL aliquots. 10 μL of a 100 nM stock solution of the catalytic domain of MMP-3 enzyme (Biomol, Cat. No. SE-109) is added to the compound solution. The mixture of enzyme and compound in assay buffer is thoroughly mixed and incubated for 10 min at room temperature. Upon the completion of incubation, the assay is started by addition of 40 μL of a 12.5 μM stock solution of NFF-3 fluorescent substrate (Calbiochem, Cat. No. 480455). The time-dependent increase in fluorescence is measured at the 330 nm excitation and 390 nm emission by an automatic plate multireader. The IC50 values are calculated from the initial reaction rates.

[3] = target: T3, activated MMP-8 enzyme (Homo sapiens, UniProt P22894); test: Assay for determining MMP-8 inhibition (OmniMMP fluorescent substrate); settings: read-out: MMP-8 Activity (IC50 MMP-8), Group
T3 construct: purchased Calbiochem 444229
Description: The typical assay for MMP-8 activity is carried out in assay buffer comprised of 50 mM Tris, pH 7.5, 150 mM NaCl, 5 mM CaCl2 and 0.05% Brij-35. Different concentrations of tested compounds are prepared in assay buffer in 50 μL aliquots. 10 μL of a 50 nM stock solution of activated MMP-8 enzyme (Calbiochem, Cat. No. 444229) is added to the compound solution. The mixture of enzyme and compound in assay buffer is thoroughly mixed and incubated for 10 min at 37° C. Upon the completion of incubation, the assay is started by addition of 40 μL of a 10 μM stock solution of OmniMMP fluorescent substrate (Biomol, Cat. No. P-126). The time-dependent increase in fluorescence is measured at the 320 nm excitation and 390 nm emission by an automatic plate multireader at 37° C. The IC50 values are calculated from the initial reaction rates.

T3 sequence (P22894 101-467): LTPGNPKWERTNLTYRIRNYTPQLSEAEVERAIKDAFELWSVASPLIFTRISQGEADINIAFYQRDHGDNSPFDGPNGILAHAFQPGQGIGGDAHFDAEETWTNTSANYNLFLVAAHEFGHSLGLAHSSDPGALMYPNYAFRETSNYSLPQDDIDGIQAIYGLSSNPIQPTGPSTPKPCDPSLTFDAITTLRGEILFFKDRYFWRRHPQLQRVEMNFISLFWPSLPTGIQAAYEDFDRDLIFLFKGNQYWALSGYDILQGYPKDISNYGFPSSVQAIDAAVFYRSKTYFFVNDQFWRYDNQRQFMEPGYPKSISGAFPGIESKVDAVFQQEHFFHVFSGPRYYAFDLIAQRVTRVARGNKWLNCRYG
T2 sequence (P08254 100-272 limits assumed): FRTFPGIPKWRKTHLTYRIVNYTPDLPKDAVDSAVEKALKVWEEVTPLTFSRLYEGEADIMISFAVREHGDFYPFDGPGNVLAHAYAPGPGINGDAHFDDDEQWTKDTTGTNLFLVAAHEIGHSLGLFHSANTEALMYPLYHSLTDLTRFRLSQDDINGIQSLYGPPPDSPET

| SMILES | IC50 [1] | IC50 [2] | IC50 [3] |
| --- | --- | --- | --- |
| Cc1c(Br)sc2nc(C(=O)NCc3ccc4c(c3)NC(=O)CO4)[nH]c(=O)c12 [2/11] | < 0.1 µM | 0.25 to 20 µM | < 0.25 µM |
| O=C1COc2ccc(CNC(=O)c3nc4ccsc4c(=O)[nH]3)cc2N1 [2/20] | < 0.1 µM | 0.25 to 20 µM | 0.25 to 20 µM |
| O=C1COc2ccc(CNC(=O)c3nc4ccc(F)cc4c(=O)[nH]3)cc2N1 [2/23] | < 0.1 µM | < 0.25 µM | < 0.25 µM |
| Nc1c(N2CCc3ccc(CNC(=O)c4nc5scc(-c6cccs6)c5c(=O)[nH]4)cc3C2)c(=O)c1=O [2/51] | < 0.1 µM | < 0.25 µM | 0.25 to 20 µM |
| O=C1COc2ccc(CNC(=O)c3nc4c(c(=O)[nH]3)CCCC4)cc2N1 [2/55] | < 0.1 µM | 0.25 to 20 µM | < 0.25 µM |
| O=C1COc2ccc(CNC(=O)c3nc4scc(C(F)(F)F)c4c(=O)[nH]3)cc2N1 [2/86] | < 0.1 µM | < 0.25 µM | 0.25 to 20 µM |
| O=C1COc2ccc(CNC(=O)c3nc4ccc(CNC(=O)c5ccccc5)cc4c(=O)[nH]3)cc2N1 [2/93] | < 0.1 µM | 0.25 to 20 µM | < 0.25 µM |
| Nc1c(N2CCc3ccc(CNC(=O)c4nc5scc(-c6ccco6)c5c(=O)[nH]4)cc3C2)c(=O)c1=O [2/98] | < 0.1 µM | < 0.25 µM | 0.25 to 20 µM |
| Cc1sc2nc(C(=O)NCc3ccc4c(c3)NC(=O)CO4)[nH]c(=O)c2c1-c1ccccc1 [2/105] |  | 0.25 to 20 µM | 0.25 to 20 µM |
| Nc1c(N2CCc3ccc(CNC(=O)c4nc5scc(-c6ccccc6)c5c(=O)[nH]4)cc3C2)c(=O)c1=O [2/110] | < 0.1 µM | 0.25 to 20 µM | 0.25 to 20 µM |
| Cc1nsc2nc(C(=O)NCc3ccc4c(c3)CN(c3c(N)c(=O)c3=O)CC4)[nH]c(=O)c12 [2/134] | 0.1 to 20 µM | < 0.25 µM | 0.25 to 20 µM |
| CN(C)C(=O)Cc1csc2nc(C(=O)NCc3ccc4c(c3)NC(=O)CO4)[nH]c(=O)c12 [2/160] | < 0.1 µM | 0.25 to 20 µM | < 0.25 µM |
| CNC(=O)C(C)c1csc2nc(C(=O)NCc3ccc4c(c3)NC(=O)CO4)[nH]c(=O)c12 (stereo not drawn) [2/183] |  | 0.25 to 20 µM | < 0.25 µM |
| O=C1COc2ccc(CNC(=O)c3nc4scc(-c5cnccn5)c4c(=O)[nH]3)cc2N1 [2/185] | < 0.1 µM | < 0.25 µM | 0.25 to 20 µM |
| Nc1c(N2CCc3ccc(CNC(=O)c4nc5scc(-c6cnccn6)c5c(=O)[nH]4)cc3C2)c(=O)c1=O [2/186] | < 0.1 µM | < 0.25 µM |  |
| O=C1COc2ccc(CNC(=O)c3nc4scc(-c5nccs5)c4c(=O)[nH]3)cc2N1 [2/265] | < 0.1 µM | < 0.25 µM | 0.25 to 20 µM |
| Cc1sc2nc(C(=O)NCc3ccc4c(c3)NC(=O)CO4)[nH]c(=O)c2c1C(C)c1ccccc1 (stereo not drawn) [2/373] | < 0.1 µM | 0.25 to 20 µM | < 0.25 µM |
| Cc1c(CC(=O)O)sc2nc(C(=O)NCc3ccc4c(c3)NC(=O)CO4)[nH]c(=O)c12 [4/12] | < 0.1 µM | 0.25 to 20 µM |  |
| C[C@@H](NC(=O)c1ccccc1)c1ccc2nc(C(=O)NCc3ccc4c(c3)NC(=O)CO4)[nH]c(=O)c2c1 [29/1] | < 0.1 µM | 0.25 to 20 µM | < 0.25 µM |
| O=C1COc2ccc(CNC(=O)c3nc4cccc(NCc5ccccc5)c4c(=O)[nH]3)cc2N1 [36/3] |  | 0.25 to 20 µM |  |
| N#Cc1ccc2nc(C(=O)NCc3ccc4c(c3)NC(=O)CO4)[nH]c(=O)c2c1 [Example 9] | < 0.1 µM | < 0.25 µM | < 0.25 µM |
| Cc1c(C(C)O)sc2nc(C(=O)NCc3ccc4c(c3)NC(=O)CO4)[nH]c(=O)c12 (stereo not drawn) [Example 21] | < 0.1 µM |  | < 0.25 µM |
| COc1cccc2nc(C(=O)NCc3ccc4c(c3)NC(=O)CO4)[nH]c(=O)c12 [Example 35] | < 0.1 µM | < 0.25 µM | < 0.25 µM |
| COC(=O)c1cccc2nc(C(=O)NCc3ccc4c(c3)NC(=O)CO4)[nH]c(=O)c12 [Example 36] | < 0.1 µM | 0.25 to 20 µM | 0.25 to 20 µM |

The remaining lines, values ahead:

| IC50 [1] | IC50 [2] | IC50 [3] | SMILES |
| --- | --- | --- | --- |
| < 0.1 µM | < 0.25 µM | < 0.25 µM | Cc1csc2nc(C(=O)NCc3ccc4c(c3)CN(c3c(N)c(=O)c3=O)CC4)[nH]c(=O)c12 [2/10] |
|  | < 0.25 µM | < 0.25 µM | O=C1COc2ccc(CNC(=O)c3nc4ccc(Cl)cc4c(=O)[nH]3)cc2N1 [2/26] |
| < 0.1 µM | 0.25 to 20 µM | < 0.25 µM | O=C1COc2ccc(CNC(=O)c3nc4cc(Br)ccc4c(=O)[nH]3)cc2N1 [2/39] |
| < 0.1 µM | 0.25 to 20 µM | < 0.25 µM | Cc1sc2nc(C(=O)NCc3ccc4c(c3)NC(=O)CO4)[nH]c(=O)c2c1C [2/46] |
|  | < 0.25 µM | 0.25 to 20 µM | O=C1COc2ccc(CNC(=O)c3nc4scc(-c5cccs5)c4c(=O)[nH]3)cc2N1 [2/49] |
|  | < 0.25 µM |  | COc1ccc2nc(C(=O)NCc3ccc4c(c3)NC(=O)CO4)[nH]c(=O)c2c1 [2/71] |
| < 0.1 µM | < 0.25 µM | < 0.25 µM | O=C1COc2ccc(CNC(=O)c3nc4cccc(F)c4c(=O)[nH]3)cc2N1 [2/74] |
|  | < 0.25 µM |  | CC(=O)NCc1ccc2nc(C(=O)NCc3ccc4c(c3)NC(=O)CO4)[nH]c(=O)c2c1 [2/91] |
| < 0.1 µM | 0.25 to 20 µM | < 0.25 µM | Cc1sc2nc(C(=O)NCc3ccc4c(c3)NC(=NC#N)CO4)[nH]c(=O)c2c1C [2/221] |
| < 0.1 µM | 0.25 to 20 µM |  | O=C(Cc1csc2nc(C(=O)NCc3ccc4c(c3)NC(=O)CO4)[nH]c(=O)c12)NCS(=O)(=O)O [2/271] |
| < 0.1 µM | < 0.25 µM | < 0.25 µM | Cc1c(CC(=O)O)sc2nc(C(=O)NCc3ccc4c(c3)CN(c3c(N)c(=O)c3=O)CC4)[nH]c(=O)c12 [4/13] |
| 0.1 to 20 µM | 0.25 to 20 µM |  | O=C1COc2ccc(CNC(=O)c3nc4[nH]ncc4c(=O)[nH]3)cc2N1 [39/13] |
| < 0.1 µM | < 0.25 µM | < 0.25 µM | O=C1COc2ccc(CNC(=O)c3nc4ccc(Br)cc4c(=O)[nH]3)cc2N1 [Example 2/21] |
| < 0.1 µM | 0.25 to 20 µM | < 0.25 µM | CC(C)(C)OC(=O)NCc1ccc2nc(C(=O)NCc3ccc4c(c3)NC(=O)CO4)[nH]c(=O)c2c1 [Example 14] |
| < 0.1 µM | < 0.25 µM | < 0.25 µM | N#CCc1csc2nc(C(=O)NCc3ccc4c(c3)NC(=O)CO4)[nH]c(=O)c12 [Example 19] |
